Values quoted from earlier work as cited in US10105334B2, “Particle formulations of all-trans retinoic acid and transforming growth factor beta for the treatment of type 1 diabetes mellitus” (University of Pittsburgh—Of the Commonwealth System of …, priority 2014, dated 2018).

Conditions: Tsang et al., Cytokine 7:389-97 (1995)

Substance: TGFβ: growth factor and immunomodulatory cytokine
- ED50 (physiologically-active concentration): 0.04-0.2 ng/mL
